Data set [1] is described as follows: Antiproliferative activity against human IMR32 cells assessed as inhibition of cell viability after 48 hrs. It is filed as cell-based. Particulars: IMR-32, 48 h.
The target of data set [2] is T1, Histamine H4 receptor (Homo sapiens, UniProt Q9H3N8). Description: Displacement of [3H]histamine from human H4 receptor expressed in Sf9 cell membranes co-expressing Galphai2 and Gbeta1gamma2 after 60 mins by liquid scintillation counting assay. The class given is cell-based.
T1 sequence (Q9H3N8 whole entry): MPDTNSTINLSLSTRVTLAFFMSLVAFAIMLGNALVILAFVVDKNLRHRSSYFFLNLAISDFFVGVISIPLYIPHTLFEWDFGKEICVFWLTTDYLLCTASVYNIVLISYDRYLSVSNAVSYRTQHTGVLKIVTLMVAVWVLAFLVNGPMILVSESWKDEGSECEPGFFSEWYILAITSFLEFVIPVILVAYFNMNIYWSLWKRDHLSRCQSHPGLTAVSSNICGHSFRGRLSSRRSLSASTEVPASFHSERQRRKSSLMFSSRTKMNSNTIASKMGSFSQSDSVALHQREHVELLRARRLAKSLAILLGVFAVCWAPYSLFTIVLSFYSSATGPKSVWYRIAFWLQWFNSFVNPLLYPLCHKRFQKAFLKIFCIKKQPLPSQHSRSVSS
In data set [3] the test system is Liver microsome. Nature of the data set: Retention time in human liver microsomes at 50 uM after 48 hrs by LC-MS analysis. The class given is ADME.
Data set [4] concerns Liver microsome. Description: Drug level in human liver microsomes treated with 50 uM 4-[(E)-2-(3-chlorophenyl)ethenyl]-6-(4-methylpiperazin-1-yl)-1,3,5-triazin-2-amine assessed as compound formation after 48 hrs by LC-MS analysis. The class given is ADME.
Data set [5] concerns Mus musculus. Nature of the data set: Antiinflammatory activity in albino Swiss mouse assessed as inhibition of carrageenan-induced paw edema at 25 mg/kg, po administered prior to carrageenan challenge measured after 3 hrs by plethysmometry relative to control. It is filed as functional. On the technique in general: The carrageenan paw model is a standard test of acute inflammation.

Data set [6] deals with Mus musculus. Nature of the data set: Antiinflammatory activity in albino Swiss mouse assessed as inhibition of carrageenan-induced paw edema at 50 mg/kg, po administered prior to carrageenan challenge measured after 1 hr by plethysmometry relative to control. It is filed as functional.
For data set [7], the system named is Mus musculus. Nature of the data set: Antiinflammatory activity in albino Swiss mouse assessed as inhibition of carrageenan-induced paw edema at 50 mg/kg, po administered prior to carrageenan challenge measured after 2 hrs by plethysmometry relative to control. It is filed as functional.
Data set [8] concerns Mus musculus. Nature of the data set: Antiinflammatory activity in albino Swiss mouse assessed as inhibition of carrageenan-induced paw edema at 25 mg/kg, po administered prior to carrageenan challenge measured after 1 hr by plethysmometry relative to control. The class given is functional.
For data set [9], the system named is Mus musculus. Nature of the data set: Antiinflammatory activity in albino Swiss mouse assessed as inhibition of carrageenan-induced paw edema at 10 mg/kg, po administered prior to carrageenan challenge measured after 2 hrs by plethysmometry relative to control. The class given is functional.
The test system of data set [10] is Mus musculus. Nature of the data set: Antiinflammatory activity in albino Swiss mouse assessed as inhibition of carrageenan-induced paw edema at 50 mg/kg, po administered prior to carrageenan challenge measured after 3 hrs by plethysmometry relative to control. It is filed as functional.
For data set [11], the system named is Mus musculus. Nature of the data set: Antiinflammatory activity in albino Swiss mouse assessed as inhibition of carrageenan-induced paw edema at 10 mg/kg, po administered prior to carrageenan challenge measured after 1 hr by plethysmometry relative to control. It is filed as functional.
For data set [12], the system named is Mus musculus. Nature of the data set: Antiinflammatory activity in albino Swiss mouse assessed as inhibition of carrageenan-induced paw edema at 25 mg/kg, po administered prior to carrageenan challenge measured after 2 hrs by plethysmometry relative to control. The class given is functional.
Data set [13] deals with Mus musculus. Nature of the data set: Antiinflammatory activity in albino Swiss mouse assessed as inhibition of carrageenan-induced paw edema at 10 mg/kg, po administered prior to carrageenan challenge measured after 3 hrs by plethysmometry relative to control. The class given is functional.
The target in data set [14] is T2, Histamine H4 receptor (Mus musculus, UniProt Q91ZY2).
T2 sequence (Q91ZY2 whole entry): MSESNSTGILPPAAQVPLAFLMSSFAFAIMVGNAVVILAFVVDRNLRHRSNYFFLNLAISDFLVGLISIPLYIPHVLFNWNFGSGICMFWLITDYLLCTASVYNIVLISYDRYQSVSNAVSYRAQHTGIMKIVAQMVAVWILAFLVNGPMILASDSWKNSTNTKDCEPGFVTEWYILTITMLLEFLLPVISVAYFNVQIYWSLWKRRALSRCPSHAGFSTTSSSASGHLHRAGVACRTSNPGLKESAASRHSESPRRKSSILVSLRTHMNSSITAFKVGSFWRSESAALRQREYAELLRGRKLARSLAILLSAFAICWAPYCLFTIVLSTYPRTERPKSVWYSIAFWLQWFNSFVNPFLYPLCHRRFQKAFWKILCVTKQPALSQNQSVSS
Description: Displacement of [3H]histamine from mouse H4 receptor expressed in HEK293 cell membranes co-expressing Galphai2 and Gbeta1gamma2 after 1 hr by liquid scintillation counting assay. A general note: Displacement assays read how much labelled ligand stays bound in the presence of the test substance.

Data set [15] has as its target T1, Histamine H4 receptor. Nature of the data set: Antagonist activity at human H4R expressed in CHO cells assessed as inhibition of forskolin-induced cAMP accumulation after 30 mins by TR-FRET immunoassay. The class given is functional, cell-based.
Data set [16] is described as follows: Ratio of IC50 for doxorubicin to antiproliferative activity for test compound against human IMR32 cells. It is filed as cell-based, IMR-32. Particulars: read-out: Ratio IC50.
Data set [17] deals with HEK293. Description: Antiproliferative activity against HEK293 cells assessed as inhibition of cell viability at 0.01 to 250 uM after 48 hrs. It is filed as cell-based. Particulars: human, hek293, 48 h.
The subject of data set [18] is Mus musculus. Description: Antiinflammatory activity in albino Swiss mouse assessed as inhibition of carrageenan-induced paw edema at 10 mg/kg, po administered prior to carrageenan challenge measured after 1 to 3 hrs by plethysmometry relative to control. The class given is functional.
Data set [19] deals with Histamine H3 receptor (Homo sapiens) (UniProt Q9Y5N1). Description: Displacement of [3H]-N-alpha-methylhistamine from human H3 receptor expressed in HEK293 cells at >=30 uM after 60 mins by liquid scintillation counter assay. It is filed as cell-based.
Histamine H3 receptor (Homo sapiens), sequence (Q9Y5N1 whole entry): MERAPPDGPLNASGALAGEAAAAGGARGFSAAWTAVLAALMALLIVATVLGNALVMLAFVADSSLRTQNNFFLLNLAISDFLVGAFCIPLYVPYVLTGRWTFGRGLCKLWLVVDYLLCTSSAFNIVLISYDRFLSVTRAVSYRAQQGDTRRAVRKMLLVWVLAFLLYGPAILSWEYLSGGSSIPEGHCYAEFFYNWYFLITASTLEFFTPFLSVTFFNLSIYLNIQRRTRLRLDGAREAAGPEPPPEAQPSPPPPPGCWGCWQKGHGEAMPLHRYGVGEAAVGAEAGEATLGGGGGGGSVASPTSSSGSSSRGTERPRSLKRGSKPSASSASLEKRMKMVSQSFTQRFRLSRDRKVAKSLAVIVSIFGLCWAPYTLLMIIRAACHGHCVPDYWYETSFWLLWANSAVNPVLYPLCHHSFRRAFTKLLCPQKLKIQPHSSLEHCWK
For data set [20], the system named is Salmonella typhimurium. Nature of the data set: Genotoxicity in Salmonella typhimurium TA98 at 1 to 100 uM after 48 hrs by MPF assay. It is filed as toxicity, organism-based. Conditions: salmonella enterica subsp. enterica serovar typhimurium.
The subject of data set [21] is Liver microsome. Nature of the data set: Drug metabolism in human liver microsomes assessed as metabolite M2 formation at 50 uM after 48 hrs by LC-MS analysis. The class given is ADME. Background: Liver microsomes are a subcellular fraction often used to study metabolism.
The target of data set [22] is CYP3A4 (Homo sapiens, UniProt P08684). Description: Inhibition of human recombinant CYP3A4 assessed as conversion of luciferin-PPXE to D-luciferin at 25 uM by luminescence Glo assay relative to control. The class given is ADME. Conditions: recombinant CYP3A4, probe luciferin-PPXE.
CYP3A4, sequence (P08684 whole entry): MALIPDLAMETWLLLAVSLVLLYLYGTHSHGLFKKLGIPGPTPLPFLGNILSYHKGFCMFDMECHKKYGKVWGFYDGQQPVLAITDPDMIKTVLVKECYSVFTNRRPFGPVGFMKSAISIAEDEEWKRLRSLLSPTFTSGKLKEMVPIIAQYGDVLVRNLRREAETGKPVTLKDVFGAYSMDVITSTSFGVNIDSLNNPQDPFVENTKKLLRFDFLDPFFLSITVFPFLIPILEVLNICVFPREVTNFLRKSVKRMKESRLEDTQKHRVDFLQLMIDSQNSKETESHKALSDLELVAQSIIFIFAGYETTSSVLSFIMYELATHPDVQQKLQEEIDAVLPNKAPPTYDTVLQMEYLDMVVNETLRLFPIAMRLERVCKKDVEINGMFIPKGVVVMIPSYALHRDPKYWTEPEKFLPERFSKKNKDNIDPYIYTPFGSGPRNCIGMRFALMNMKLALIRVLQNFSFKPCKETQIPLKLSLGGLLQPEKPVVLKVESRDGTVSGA
For data set [23], the system named is Liver microsome. Description: Drug metabolism in human liver microsomes assessed as metabolite M1 formation at 50 uM after 48 hrs by LC-MS analysis. The class given is ADME.
Data set [24] can be described thus: Antiproliferative activity against human IMR32 cells assessed as inhibition of cell viability at 0.01 to 250 uM after 48 hrs. Conditions: imr-32, 48 h. The class given is cell-based.
Data set [25] concerns Mus musculus. Description: Antiinflammatory activity in albino Swiss mouse assessed as inhibition of carrageenan-induced paw edema at 25 mg/kg, po administered prior to carrageenan challenge measured after 1 to 3 hrs by plethysmometry relative to control. It is filed as functional.
In data set [26] the test system is Mus musculus. Nature of the data set: Antiinflammatory activity in albino Swiss mouse assessed as inhibition of carrageenan-induced paw edema at 50 mg/kg, po administered prior to carrageenan challenge measured after 1 to 3 hrs by plethysmometry relative to control. It is filed as functional.

pIC50, pKi: −log10 of the molar value. Calls of active or inactive are those of the source. The rule behind the calls is not given here.

Data on 20 compounds can be found in ChEMBL document CHEMBL3627701, “(2-Arylethenyl)-1,3,5-triazin-2-amines as a novel histamine H4 receptor ligands” (Eur J Med Chem, 2015).

For `COc1cccc2c1C(=O)c1c(O)c3c(c(O)c1C2=O)C[C@@](O)(C(=O)CO)C[C@@H]3O[C@H]1C[C@H](N)[C@H](O)[C@H](C)O1` [DOXORUBICIN], the pIC50 – broadly, the negative decadic logarithm of the IC50, by convention in mol/L – in [1] was 8.29.

In the case of `CN1CCN(c2nc(N)nc(/C=C/c3c[nH]c4ccccc34)n2)CC1`, the pKi (usually the negative decadic logarithm of the Ki, by convention in mol/L) in data set [2] is 5.60.

`CN1CCN(c2nc(N)nc(/C=C/c3ccccc3)n2)CC1` gave a pKi in data set [2] of 5.28.

`Cc1ccccc1/C=C/c1nc(N)nc(N2CCN(C)CC2)n1`: in [2], the pKi is 5.65.

Take `CN1CCN(c2nc(N)nc(/C=C/c3ccccc3Cl)n2)CC1`: the pKi in data set [2] is 5.31. Compared with the last compound, the pKi is 0.34 log units lower.

For `Nc1nc(/C=C/c2cccc(Cl)c2)nc(N2CCNCC2)n1`, the Retention_time in data set [3] is reported as 3.55 min. The Drug metabolism result in data set [4] is listed as “metabolite_detected”.

In [2], `CN1CCN(c2nc(N)nc(/C=C/c3cccc4ccccc34)n2)CC1` showed a pKi of 4.52.

As to `CC(C(=O)O)c1cccc(C(=O)c2ccccc2)c1` (stereo unspecified) [KETOPROFEN], the inhibition in vivo – broadly, the share of the control response that was lost under treatment – at 25 mg/kg in [5] worked out at 67%; in data set [8], 20%; in data set [12], 54%. In addition, the inhibition in vivo at 50 mg/kg is 67% in data set [6], 71% in data set [7] and 77% in data set [10]. The inhibition in vivo at 10 mg/kg in data set [9] came to 55%; in data set [11], 27%; in data set [13], 63%.

`CN1CCN(c2nc(N)nc(/C=C/c3cccc([N+](=O)[O-])c3)n2)CC1` showed a pKi in data set [2] of 5.59.

Consider `CN1CCN(c2nc(N)nc(/C=C/c3ccc4ccccc4c3)n2)CC1`, for which, in data set [2], the pKi was 5.42.

`CN1CCN(c2nc(N)nc(/C=C/c3cccc(C#N)c3)n2)CC1` gave a pKi in data set [2] of 5.58.

In turn, `CN1CCN(c2nc(N)nc(/C=C/c3ccc(Cl)cc3)n2)CC1` showed a pKi in [2] of 5.38.

Regarding `CN1CCN(c2nc(N)nc(/C=C/c3cccc(Br)c3)n2)CC1`, the pKi in data set [2] was 5.94. This pKi lies 0.56 log units higher than the previous one.

As for `CN1CCN(c2nc(N)nc(/C=C/c3cccc(Cl)c3)n2)CC1`, the pKi is 6.07 in data set [14] and 6.60 in data set [2]. Besides, the pIC50 in data set [15] was 6.36. In addition, in data set [16], the selectivity ratio was more than 1000. Moreover, the inhibition in vivo at 25 mg/kg in data set [5] was 65%; in data set [8], 59%; in [12], 58%. For the same compound, the Activity result in [17], in [20] and in data set [24] was “Non-toxic” each time. The inhibition in vivo at 50 mg/kg in data set [6] stood at 69%; in [7], 62%; in data set [10], 67%. Besides, in [18], the inhibition in vivo at 10 mg/kg is 50%. Moreover, the inhibition (usually how much of the control response was suppressed) in data set [19] was “Active”. Also, the Drug metabolism entry in data set [21] and in data set [23] was “metabolite_detected” throughout. For the same compound, the inhibition at 25 µM in data set [22] came to 58%. Besides, the Retention_time in [3] amounted to 3.63 min.

In data set [2], `Cc1ccc(/C=C/c2nc(N)nc(N3CCN(C)CC3)n2)cc1` showed a pKi of 4.43.

`Cc1cccc(/C=C/c2nc(N)nc(N3CCN(C)CC3)n2)c1`: the inhibition in vivo at 25 mg/kg in [25] stood at 53%. In [15], the pIC50 was 6.22. Moreover, in [26], the inhibition in vivo at 50 mg/kg was determined as 88%. In addition, the inhibition entry in data set [19] is “Active”. In data set [2], this compound had a pKi of 6.15.

The compound `CN1CCN(c2nc(N)nc(/C=C/c3cccc(F)c3)n2)CC1` gave a pKi in [2] of 5.45.

Take `CN1CCN(c2nc(N)nc(/C=C/c3cccc(C(F)(F)F)c3)n2)CC1`: in data set [2], the pKi is 5.61.

For the compound `CN1CCN(c2nc(N)nc(/C=C/c3ccc(Cl)cc3Cl)n2)CC1`, the pKi in data set [2] is 5.04.

The compound `CN1CCN(c2nc(N)nc(/C=C/c3ccc(Cl)c(Cl)c3)n2)CC1` had a pKi in data set [2] of 5.75.
